The source of these data is PMC11277446, “Discovery of Cell-Permeable Allosteric Inhibitors of Liver Pyruvate Kinase: Design and Synthesis of Sulfone-Based Urolithins” (International Journal of Molecular Sciences, 2024).

The target of series [1] is T1, PKL (Homo sapiens, UniProt P30613).
T1 construct: HepG2 KO cells were lysed and protein lysated with CelLytic M; host or cells: HepG2 PKM CRISPR KO cells
The series can be described thus: Pyruvate kinase activity kinetic assay on HepG2 KO (PKL only) cell protein lysate. Type of series: biochemical. To be noted: read-out: IC50 of PKL enzymatic activity inhibition.

Series [2] has as its target T1, PKL. Described as above. Type of series: biochemical. Here is the method:
(§1) HepG2 KO cells were lysed and protein lysated with CelLytic M (C2978, Sigma-Aldrich, St. Louis, MO, USA) lysis buffer. The effect of 10 µM compounds on pyruvate kinase activity on protein lysate was measured with the Pyruvate Kinase Assay Kit (ab83432, Abcam, Cambridge, UK), followed by the manufacturer’s instructions. 2 × 10^4 HepG2 WT cells and 1 × 10^5 HepG2 KO cells were seeded into 96-well plates for a pyruvate kinase activity assay on cells. Drugs were treated at 20 µM concentration on the cell for 4 h and washed with 250 µL of PBS. Cells were lysed with 50 µL PK assay buffer (ab83432, Abcam) and started reaction and kinetic O.D measurement with 50 µL PK assay buffer that contained the assay component (ab83432, Abcam). O.D. values were measured with a microplate reader (Hidex Sense Beta Plus, Turku, Finland) at 570 nm wavelength.

The subject of series [3] is HepG2 de novo lipogenic (DNL) steatosis model. Details: method as in PMID 37674987. To be noted: cited from earlier work.
Series [4] deals with T2, PKL in HepG2 KO cells (Homo sapiens, UniProt P30613).
T2 construct: host or cells: HepG2 PKM CRISPR KO cells
T2 sequence (P30613 1-543 isoform P30613-2): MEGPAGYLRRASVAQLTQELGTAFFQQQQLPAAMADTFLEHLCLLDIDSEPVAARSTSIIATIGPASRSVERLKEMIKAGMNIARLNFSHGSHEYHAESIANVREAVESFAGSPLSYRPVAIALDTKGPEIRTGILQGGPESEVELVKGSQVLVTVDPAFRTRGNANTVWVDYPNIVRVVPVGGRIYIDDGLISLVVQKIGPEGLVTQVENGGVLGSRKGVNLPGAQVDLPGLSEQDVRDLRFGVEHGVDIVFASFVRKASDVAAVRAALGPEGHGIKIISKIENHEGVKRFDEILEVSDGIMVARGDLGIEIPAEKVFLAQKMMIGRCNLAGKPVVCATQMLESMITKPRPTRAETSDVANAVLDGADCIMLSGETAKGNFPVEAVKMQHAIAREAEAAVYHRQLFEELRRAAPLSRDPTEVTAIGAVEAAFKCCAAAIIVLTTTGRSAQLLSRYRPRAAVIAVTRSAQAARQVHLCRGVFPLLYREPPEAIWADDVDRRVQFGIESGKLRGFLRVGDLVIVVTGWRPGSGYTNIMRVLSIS
The series can be described thus: Pyruvate kinase activity assay on compound-treated HepG2 KO cells (whole-cell assay). Type of series: cell-based. Here is the method: as §1

Series [5] has as its system PK activity in HepG2 WT cells (PKM and PKL). The series can be described thus: Pyruvate kinase activity assay on compound-treated HepG2 WT cells. Format: cell-based, human. The conditions noted are these: 20 µM, 4 h. How it is done: as §1
The target in series [6] is T1, PKL. The series can be described thus: Cellular Thermal Shift Assay (CETSA), PKL. Format: cell-based. The conditions noted are these: HepG2 WT cells, 2 h treatment, 60 °C heat shock 5 min, western blot. How it is done:
(§2) HepG2 WT cells were trypsinized and transferred into a 1.5 mL tube at 500,000 cells per mL concentration. Compound 15e was treated with 10 µM and 20 µM in the 1.5 mL tube and incubated for 2 h in a 37 °C CO2 incubator. Tubes sustained heat shock at 60 °C for 5 min. with a pre-heated heat block. After centrifugation for heated cells at 13,000 rpm for 1 min, cell pellets were lysed with 50 µL of Native lysis Buffer (ab156035, Abcam). Centrifugation was again used to purify soluble proteins in a lysed solution, and the same volume (9 µL) of each group was analyzed using Western blot.
A general note: In western blotting, separated proteins are transferred to a membrane and probed.

Series [7] concerns PKM. The series can be described thus: Western blot of DNL pathway proteins in HepG2 steatosis model, PKM. Format: cell-based, human. To be noted: 5 µM, one week. Here is the method: (§3) After steatosis induction with a designated concentration of compounds, whole cell lysate was prepared with CelLytic M (C2978, Sigma-Aldrich) buffer. SDS PAGE was performed using Mini-PROTEAN® TGX™ Precast Gels (Bio-Rad, Hercules, CA, USA) and transferred using the Trans-Blot® Turbo™ Transfer System (Bio-Rad). FASN (ab22759, Abcam), ChREBP (92809, Abcam), PKL (06653, Sigma), PKM (4053S, Cell Signaling Technology, Danvers, MA, USA), β-actin (ab8227, Abcam), and GAPDH (sc-47724, Santa Cruz Biotechnology, Inc., Dallas, TX, USA) were blotted as primary antibodies overnight. Secondary antibodies, Goat Anti-Rabbit HRP (ab205718, Abcam) and goat anti-mouse IgG-HRP (sc2005, Santa Cruz Biotechnology, Inc.), were blotted for one hour. The protein band was detected with ImageQuantTMLAS 500 (29-0050-63, GE Healthcare Bio-Sciences AB, Uppsala, Sweden).

Series [8] deals with ChREBP. The series can be described thus: Western blot of DNL pathway proteins in HepG2 steatosis model, ChREBP. Format: cell-based, human. To be noted: 5 µM, one week. Here is the method:
as §3

The target of series [9] is T3, PKM (Homo sapiens, UniProt P14618).
T3 construct: HepG2 WT cells were trypsinized and transferred into a 1.5 mL tube; host or cells: HepG2 WT cells
T3 sequence (P14618 2-531 limits assumed): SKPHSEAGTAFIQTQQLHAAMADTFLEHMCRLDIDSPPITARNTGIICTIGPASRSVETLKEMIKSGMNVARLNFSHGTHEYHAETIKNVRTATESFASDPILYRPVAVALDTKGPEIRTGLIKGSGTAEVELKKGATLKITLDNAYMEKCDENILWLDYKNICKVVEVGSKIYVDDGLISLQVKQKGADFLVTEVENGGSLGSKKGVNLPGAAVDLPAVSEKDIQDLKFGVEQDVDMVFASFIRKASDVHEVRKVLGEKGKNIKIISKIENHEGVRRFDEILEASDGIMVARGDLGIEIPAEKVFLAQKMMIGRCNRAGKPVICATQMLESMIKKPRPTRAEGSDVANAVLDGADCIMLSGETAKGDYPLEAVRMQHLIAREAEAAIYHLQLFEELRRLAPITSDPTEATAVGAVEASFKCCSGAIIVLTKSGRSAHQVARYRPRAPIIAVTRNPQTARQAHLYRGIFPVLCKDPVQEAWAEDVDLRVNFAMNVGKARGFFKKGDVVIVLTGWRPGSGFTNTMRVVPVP
The series can be described thus: Cellular Thermal Shift Assay (CETSA), PKM. Format: cell-based. To be noted: HepG2 WT cells, 2 h treatment, 60 °C heat shock 5 min, western blot. Here is the method:
as §2

Series [10] concerns HepG2 de novo lipogenic (DNL) steatosis model. The series can be described thus: MTT cell viability assay in HepG2 DNL steatosis model. Format: cell-based, human. Here is the method:
HepG2 wild-type cells and HepG2 PKM CRISPR KO cells were purchased from the genome engineering company Synthego (Menlo Park, CA, USA). Cells were maintained with growth media RPMI 1640 (R2405, Sigma-Aldrich) and supplemented with 10% fetal bovine serum (FBS, F7524, Sigma-Aldrich) and 1% P/S (P4333, Sigma-Aldrich). Steatosis induction media was prepared as DMEM high glucose (D0819, Sigma-Aldrich) with 10% FBS, 1% P/S media supplemented with 10 µg/mL insulin (I9278, Sigma-Aldrich), and 10 µM T0901317 (T2320, Sigma-Aldrich) for one week. HepG2 cells were seeded 6 × 10^4 cells per well into a 96-well plate for TAG and MTT assays after steatosis and 1 × 10^6 cells per well into a 6-well plate for western blot analysis after steatosis. […]
HepG2 cells were seeded at 6 × 10^4 cells per well into 96-well plates and induced steatosis for one week with a designated concentration of small molecules. After steatosis induction, cells were washed with 200 µL of PBS, and triglyceride contents were measured by the Triglyceride Assay Kit-Quantification (ab65336, Abcam) following the manufacturer’s instructions. O.D. values were detected with a microplate reader at 570 nm (Hidex Sense Beta Plus). […] Cell viability was analyzed by measuring the absorbance of the dissolved formazan in a microplate reader at a wavelength of 570 nm with a microplate reader (Hidex Sense Beta Plus).
A general note: Formazan colour is commonly taken as a measure of viable cells.

The test system of series [11] is PKL. The series can be described thus: Western blot of DNL pathway proteins in HepG2 steatosis model, PKL. Type of series: cell-based, human. The conditions noted are these: 5 µM, one week. Here is the method: as §3
Series [12] relates to FASN. The series can be described thus: Western blot of DNL pathway proteins in HepG2 steatosis model, FASN. Format: cell-based, human. The conditions noted are these: 5 µM, one week. How it is done:
as §3

Series [13] relates to HepG2 de novo lipogenic (DNL) steatosis model. The series can be described thus: TAG measurement in HepG2 DNL steatosis model. To be noted: one week. Format: cell-based, human. How it is done: HepG2 wild-type cells and HepG2 PKM CRISPR KO cells were purchased from the genome engineering company Synthego (Menlo Park, CA, USA). Cells were maintained with growth media RPMI 1640 (R2405, Sigma-Aldrich) and supplemented with 10% fetal bovine serum (FBS, F7524, Sigma-Aldrich) and 1% P/S (P4333, Sigma-Aldrich). Steatosis induction media was prepared as DMEM high glucose (D0819, Sigma-Aldrich) with 10% FBS, 1% P/S media supplemented with 10 µg/mL insulin (I9278, Sigma-Aldrich), and 10 µM T0901317 (T2320, Sigma-Aldrich) for one week. HepG2 cells were seeded 6 × 10^4 cells per well into a 96-well plate for TAG and MTT assays after steatosis and 1 × 10^6 cells per well into a 6-well plate for western blot analysis after steatosis. HepG2 cells were incubated with steatosis-inducing media for one week by 3 days + 2 days + 2 days with a total of three media exchanges.
HepG2 cells were seeded at 6 × 10^4 cells per well into 96-well plates and induced steatosis for one week with a designated concentration of small molecules. After steatosis induction, cells were washed with 200 µL of PBS, and triglyceride contents were measured by the Triglyceride Assay Kit-Quantification (ab65336, Abcam) following the manufacturer’s instructions. O.D. values were detected with a microplate reader at 570 nm (Hidex Sense Beta Plus). A 5 mg/mL MTT (M2128, Sigma-Aldrich) solution in PBS (10 µL) was added to each well for the MTT assay. After 1 h, the MTT solution and all media were removed from the wells. 100 μL of DMSO was added and mixed to dissolve the formazan crystals. Cell viability was analyzed by measuring the absorbance of the dissolved formazan in a microplate reader at a wavelength of 570 nm with a microplate reader (Hidex Sense Beta Plus).

The subject of series [14] is PKL. Details: method as in PMID 36753880. The conditions noted are these: 10 μM in liver cell lysate; cited from earlier work.
Series [15] deals with PKL. The conditions noted are these: Figure 2, background data; cited from earlier work.

T1 sequence (P30613 1-543 isoform P30613-2): as the sequence (P30613 1-543 isoform P30613-2) above

Consider `O=S1(=O)c2cc(O)c(O)cc2-c2cc(O)ccc2N1Cc1ccccc1` [15a, 6-benzyl-2,3,9-trihydroxy-6H-dibenzo[c,e][1,2]thiazine 5,5-dioxide], for which the IC50 in [1] worked out at 17.3 µM. In series [2], this compound registered an inhibition at 10 µM of 47.6%.

Regarding `N#Cc1c(NC(=O)c2cccc3ccccc23)sc2c1CCCC2` [JNK-IN-5A], the “effect on TAG” value in series [3] is recorded as “reduced TAG”.

Turning to `O=S(=O)(NCc1ccccc1)c1cc(O)c(O)cc1-c1ccc(O)c(O)c1` [9d, N-benzyl-3′,4,4′,5-tetrahydroxy-[1,1′-biphenyl]-2-sulfonamide], the half-inhibitory concentration (IC50) in series [1] came out at 4.3 µM. In [2], this compound returned an inhibition at 10 µM of 40.9%.

In series [4] (20 µM in culture media for 4 h, HepG2 KO cells), `O=S1(=O)c2cc(O)c(O)cc2-c2ccc(C(F)(F)F)cc2N1Cc1ccccc1` [15e, 6-benzyl-2,3-dihydroxy-8-(trifluoromethyl)-6H-dibenzo[c,e][1,2]thiazine 5,5-dioxide] showed an activity at 20 µM of 67.1%. Also, the “PKL inhibition in whole cells” value in [4] (20 µM, 4 h, HepG2 KO cells) is given as “significant PKL inhibition”. Also, in [4] (20 µM, 4 h, HepG2 KO cells (PKL only), Figure 6a, read-out: inhibition of PK activity), the inhibition at 20 µM was found to be 25%. Besides, in series [5], the “activation of PK activity” value is 9%. The “decrease in PKL level (CETSA)” value in series [6] amounted to 38%. Besides, the “protein level of PKM” value in [7] is “remained unaffected”. Moreover, in [8], the “protein level of ChREBP” value is recorded as “remained unaffected”. The 50% inhibitory concentration (IC50) in series [1] is 10.8 µM. For the same compound, in series [9], the “increase in PKM level (CETSA)” value came to 12%. Besides, the inhibition at 10 µM in [2] was found to be 42.9%. Further, in series [10] (5 µM to 0.625 µM, one week), the cytotoxicity entry is recorded as “did not show cytotoxicity”. Besides, the toxicity entry in [10] (10 µM, one-week DNL steatosis procedure) is listed as “high toxicity”. For the same compound, the “reduction in expression level of PKL” value in series [11] is reported as 45%. Further, the “reduction in expression level of FASN” value in series [12] is listed as “up to 79%”. The TAG contents is 80.4% ± 3.2 in series [13] (0.625 µM), 62.7% ± 2.9 in series [13] (1.25 µM), 56.3% ± 1.9 in series [13] (2.5 µM) and 55.6% ± 2.4 in [13] (5 µM).

Compound `O=S1(=O)c2cc(O)c(O)cc2-c2ccc(C(F)(F)F)cc2N1Cc1ccc(F)cc1` [18e, 6-(4-fluorobenzyl)-2,3-dihydroxy-8-(trifluoromethyl)-6H-dibenzo[c,e][1,2]thiazine 5,5-dioxide] had a melting point of 189 to 190 °C.

Turning to `O=S1(=O)c2cc(O)c(O)cc2-c2cc(O)ccc2N1Cc1ccc(F)cc1` [18a, 6-(4-fluorobenzyl)-2,3,9-trihydroxy-6H-dibenzo[c,e][1,2]thiazine 5,5-dioxide], the 50% inhibitory concentration (IC50) in series [1] was found to be 11.5 µM. The same compound gave an inhibition at 10 µM in [2] of 50.8%.

As to `O=c1oc2cc(O)ccc2c2cc(O)c(O)cc12` [Urolithin C, urolithin C, reference compound], in [4] (20 µM, 4 h, HepG2 KO cells), the “PKL inhibition in whole cells” value is on record as “did not inhibit PKL activity in cells”. The “inhibition of PKL” value in [14] was 33%. Moreover, the half-inhibitory concentration (IC50) in series [1] came to 4.7 µM. Further, at 10 µM the inhibition in series [2] was 33%.

For the compound `O=c1oc2c(O)c(O)cc3c(=O)oc4c(O)c(O)cc1c4c23` [Ellagic acid, ellagic acid], the “inhibition of PKL” value in [14] is on record as 21%. Also, in [15], the “inhibition on whole cell assay” value is “didn't observe inhibition on whole cell assay”.

On to `O=S(=O)(NCc1ccc(F)cc1)c1cc(O)c(O)cc1-c1ccc(O)c(O)c1` [12d, N-(4-fluorobenzyl)-3′,4,4′,5-tetrahydroxy-[1,1′-biphenyl]-2-sulfonamide], for which, in series [1], the IC50 amounted to 18.7 µM. For the same compound, at 10 µM the inhibition in series [2] was 44.1%.

For the compound `O=S1(=O)c2cc(O)c(O)cc2-c2cc(O)c(O)cc2N1Cc1ccccc1` [15d, 6-benzyl-2,3,8,9-tetrahydroxy-6H-dibenzo[c,e][1,2]thiazine 5,5-dioxide], the 50% inhibitory concentration (IC50) in [1] was 7.1 µM. The compound also yielded an inhibition at 10 µM in series [2] of 29.8%.

As a reminder, the IC50 is the concentration needed to halve the response being measured. By inhibition is commonly meant the percentage by which the read-out fell short of the control. In general, melting point refers to the temperature of the solid-liquid transition.
